Source: publication PMC11858841, “Intravenous Nanoemulsions Loaded with Phospholipid Complex of a Novel Pyrazoloquinolinone Ligand for Enhanced Brain Delivery” (Pharmaceutics, 2025)
Converted amounts (≈) assume the structure as drawn.

Legend:
[1] = test system: σ2 receptors; test: PDSP binding study, σ2 receptors; settings: versus the other four hits of the primary screen
[2] = Solubility, shake-flask method; type: physicochemical; settings: thermodynamic from solid
Procedure: The solubility of CW-02-79 in selected oils, organic solvents, and water solutions of various pH values was examined by using the shake-flask method, by adding an excess amount of CW-02-79. The blends were mixed on a vortex mixer for 24 h at 25 ± 2 °C to reach equilibrium. The samples were centrifuged (1000× g, 10 min, 25 °C) on a MiniSpin® plus centrifuge (Eppendorf, Hamburg, Germany). The concentration of CW-02-79 was determined after proper dilution of the supernatant with isopropanol using the LC-MS/MS method.
The concentration of CW-02-79 was determined using a LC-MS/MS method. The analysis was performed on a UHPLC chromatograph ACELLA (Thermo Fisher Scientific Inc., Madison, WI, USA), coupled to a triple quadrupole mass spectrometer TSQ Quantum Access MAX (Thermo Fisher Scientific Inc., Madison, WI, USA) with a heated electrospray ionization (HESI) interface. The column was XTerra MS C18 (150 mm × 2.1 mm, […] particle size). The mobile phase was acetonitrile/0.1% formic acid = 70:30 (v/v), the flow rate was 0.2 mL min^−1, the column temperature was set to 35 °C, and the injection volume was 10 µL. CW-02-79 and the internal standard were detected and quantified in the positive HESI mode (m/z = 389.90–345.90 and m/z = 349.00–304.11, respectively).

[3] = In vitro permeation through iPSC-derived blood–brain barrier model; type: in vitro ADME, human; settings: inserts without cells; read-out: recovery of CW-02-79 without cells
Source text: The in vitro BBB model based on the co-culture of iPSC-derived brain microvascular endothelial cells, astrocytes, and pericytes was used to estimate the transport of CW-02-79 into the brain from the developed nanoemulsions (the protocol used is available on the manufacturer’s website: iCell Blood Brain Barrier Isogenic Kit protocol, FujiFilm Cellular Dynamic Inc., Madison, WI, USA) [24]. Cell culture inserts for BBB co-cultures (pore size 0.4 µm, effective cell growth area 0.33 cm^2, Falcon®, Corning Inc., Salt Lake City, UT, USA) were coated on the apical side with a fibronectin-collagen IV matrix and on the basolateral side with a 0.1% gelatin solution. Then, astrocyte and pericyte suspensions were seeded on the basolateral side, with brain microvascular endothelial cells in the apical region of inserts, followed by overnight incubation at 37 °C and 5% CO2. […]
The total volume on the basolateral side was compensated with 100 µL of the fresh termostated medium. […] The mass balance (%) was also determined based on the amount of CW-02-79 determined in both the apical and basolateral compartments at the end of the assay divided by the total amount of CW-02-79 placed in the apical compartment to assess the potential adsorption to plastic or non-specific binding to cells.

[4] = molecular target: σ2 receptors; design: method as in PDSP Ki database https://pdspdb.unc.edu/databases/kidb.php; settings: ref PDSP Ki database https://pdspdb.unc.edu/databases/kidb.php; cited from earlier work
[5] = molecular target: 5-HT7 receptor; design: method as in PDSP Ki database https://pdspdb.unc.edu/databases/kidb.php; settings: ref PDSP Ki database https://pdspdb.unc.edu/databases/kidb.php; cited from earlier work
[6] = molecular target: benzodiazepine binding site at GABAA receptors; design: method as in PDSP Ki database https://pdspdb.unc.edu/databases/kidb.php; settings: ref PDSP Ki database https://pdspdb.unc.edu/databases/kidb.php; cited from earlier work
[7] = molecular target: histamine H2 receptor; design: method as in PDSP Ki database https://pdspdb.unc.edu/databases/kidb.php; settings: ref PDSP Ki database https://pdspdb.unc.edu/databases/kidb.php; cited from earlier work
[8] = molecular target: dopamine transporter; design: method as in PDSP Ki database https://pdspdb.unc.edu/databases/kidb.php; settings: ref PDSP Ki database https://pdspdb.unc.edu/databases/kidb.php; cited from earlier work
[9] = test system: GABAA receptors that contain any of the α1 to α6 subunits; design: method as in personal communication with Dr. Janet Fisher; settings: 10 µM; ref personal communication with Dr. Janet Fisher; cited from earlier work
[10] = design: method as in unpublished data, MM Savić and B Divović Matović; settings: doses 1 to 30 mg/kg; ref unpublished data, MM Savić and B Divović Matović; cited from earlier work

- selectivity for σ2 receptors [1]: ≥ 20 fold
- solubility at 24 h ([2]; aqueous buffer, Phosphate buffer, pH 7.4, 25 °C): 11.8 ± 0.7 µg/mL (≈ 30.3 µM)
- solubility at 24 h ([2]; oil or lipid, Castor oil, 25 °C): 27.96 ± 0.03 µg/mL (≈ 71.8 µM)
- solubility at 24 h ([2]; oil or lipid, Fish oil, 25 °C): 34.19 ± 0.06 µg/mL (≈ 87.8 µM)
- solubility at 24 h ([2]; oil or lipid, MCT, 25 °C): 49.93 ± 0.07 µg/mL (≈ 128 µM)
- solubility at 24 h ([2]; oil or lipid, MCT:castor oil (1:1, w/w), 25 °C): 218.4 ± 0.3 µg/mL (≈ 561 µM)
- solubility at 24 h ([2]; oil or lipid, MCT:soybean oil (1:1, w/w), 25 °C): 41.41 ± 0.04 µg/mL (≈ 106 µM)
- solubility at 24 h ([2]; oil or lipid, Soybean oil, 25 °C): 65.68 ± 0.43 µg/mL (≈ 169 µM)
- solubility at 24 h ([2]; organic solvent or mixture, DMSO, 25 °C): > 30000 µg/mL
- solubility at 24 h ([2]; organic solvent or mixture, Isopropanol, 25 °C): 5750 µg/mL (≈ 14800 µM)
- solubility at 24 h ([2]; organic solvent or mixture, Methanol, 25 °C): 939.1 ± 3.53 µg/mL (≈ 2410 µM)
- solubility at 24 h ([2]; simulated gastric fluid, 0.1M HCl, 25 °C): 12.3 ± 0.61 µg/mL (≈ 31.7 µM)
- solubility at 24 h ([2]; Ultrapure water, 25 °C): 11.8 ± 0.2 µg/mL (≈ 30.2 µM)
- recovery at 24 h, 3 µM [3]: ~100%
SMILES: COc1ccc2c3nn(-c4ccc(OC(F)(F)F)cc4)c(=O)c-3c[nH]c2c1C [CW-02-79, 7-methoxy-6-methyl-2-(4-(trifluoromethoxy)phenyl)-2,5-dihydro-3H-pyrazolo [4,3-c]quinolin-3-one]
- Ki [4]: 0.112 µM
- Ki [5]: 2.4 µM
- Ki [6]: 4.7 µM
- Ki [7]: 5.2 µM
- Ki [8]: > 10 µM
- modulation of GABAA receptors [9]: does not at all modulate
- signs of sedation or motor incapacitation [10]: no signs of sedation or motor incapacitation
